Laboratory results published in patent publication US20240383955A1, “MODIFIED ANTIMICROBIAL PEPTIDES” (priority 2021, published 2024).
Values after ≈ are worked out from the molar mass of the structure shown. Square brackets hold non-standard residues; d marks the D form. Peptide text beside a SMILES is read from it. Dab = NCC[C@H](N)C(=O)O

Tests used:
C. krusei = test: MIC by CLSI M27/M38 methodology; format: cell-based; conditions: C. krusei isolate ATCC 6258; Table 8
P. variotii = test: MIC by CLSI M27/M38 methodology; format: cell-based; conditions: P. variotii isolate MYA-363; Table 8

Row | SMILES | MIC, 100% (C. krusei) [µg/mL] | MIC, 100% (P. variotii) [µg/mL]
1 | CC[C@H](C)[C@H](NC(=O)[C@H](CCCNC(=N)N)NC(=O)[C@@H](NC(=O)[C@H](CS)NC(=O)[C@H](Cc1ccccc1)NC(=O)[C@H](CS)NC(=O)[C@H](CCCNC(=N)N)NC(=O)[C@H](CCCNC(=N)N)NC(=O)[C@H](CCCNC(=N)N)NC(=O)[C@H](Cc1ccccc1)NC(=O)CNC(=O)[C@H](CCCNC(=N)N)NC(=O)[C@H](CS)NC(=O)[C@H](CCCNC(=N)N)NC(=O)CNC(=O)CN)[C@@H](C)O)C(=O)N[C@@H](CS)C(N)=O [GMA4C_V2A] (H-GGRCRGFRRRCFCTRIC-NH2; N-terminus assumed) | 16 (≈ 7.82 µM) | 8 (≈ 3.91 µM)
2 | N=C(N)NCCC[C@H](NC(=O)CNC(=O)[C@@H](N)Cc1ccccc1)C(=O)N[C@@H](CS)C(=O)N[C@@H](CCCNC(=N)N)C(=O)NCC(=O)N[C@@H](Cc1ccccc1)C(=O)N[C@@H](CCCNC(=N)N)C(=O)N[C@@H](CCCNC(=N)N)C(=O)N[C@@H](CCCNC(=N)N)C(=O)N[C@@H](CS)C(=O)N[C@@H](Cc1ccccc1)C(=O)N[C@@H](CS)C(=O)N[C@@H](Cc1c[nH]c2ccccc12)C(=O)N[C@@H](CCCNC(=N)N)C(=O)N[C@@H](Cc1c[nH]c2ccccc12)C(=O)N[C@@H](CS)C(N)=O [GMA4C_V4A] (H-FGRCRGFRRRCFCWRWC-NH2; N-terminus assumed) | 8 (≈ 3.49 µM) | 8 (≈ 3.49 µM)
3 | NCC[C@H](NC(=O)CNC(=O)[C@@H](N)Cc1ccccc1)C(=O)N[C@@H](CS)C(=O)N[C@@H](CCN)C(=O)NCC(=O)N[C@@H](Cc1ccccc1)C(=O)N[C@@H](CCN)C(=O)N[C@@H](CCN)C(=O)N[C@@H](CCN)C(=O)N[C@@H](CS)C(=O)N[C@@H](Cc1ccccc1)C(=O)N[C@@H](CS)C(=O)N[C@@H](Cc1c[nH]c2ccccc12)C(=O)N[C@@H](CCN)C(=O)N[C@@H](Cc1c[nH]c2ccccc12)C(=O)N[C@@H](CS)C(N)=O [GMA4C_V5A, FG(Dab)C(Dab)GF(Dab)(Dab)(Dab)CFCW(Dab)WC-NH2] (H-FG[Dab]C[Dab]GF[Dab][Dab][Dab]CFCW[Dab]WC-NH2; N-terminus assumed) | 8 (≈ 4.08 µM) | 4 (≈ 2.04 µM)
